Experimental data reported in ChEMBL document CHEMBL3044927, “Novel 4(3H)-quinazolinone analogs: synthesis and anticonvulsant activity” (Med Chem Res, 2013).
Activity calls are given as the source filed them. The rule behind the calls is not given here.

Experiments:
Mus musculus [1] = test: Anticonvulsant activity in Swiss albino Mus musculus (mouse) assessed as protection against PTZ-induced seizure at 1.5 mmol/kg, ip administered 30 min prior to PTZ-challenge measured up to 30 min relative to control; assay type: functional
Mus musculus [2] = test: Anticonvulsant activity in Swiss albino Mus musculus (mouse) assessed as protection against picrotoxin-induced seizure at 1.5 mmol/kg, ip administered 30 min prior to picrotoxin-challenge measured up to 30 min relative to control; assay type: functional
Mus musculus [3] = test: Anticonvulsant activity in Swiss albino Mus musculus (mouse) assessed as protection against bicuculline-induced seizure at 1.5 mmol/kg, ip administered 30 min prior to bicuculline-challenge measured up to 30 min relative to control; assay type: functional
Mus musculus [4] = test: Anticonvulsant activity in Swiss albino Mus musculus (mouse) assessed as protection against maximal electric shock-induced seizure at 1.5 mmol/kg, ip administered 30 min prior to maximal electric shock-challenge measured up to 30 min relative to control; assay type: functional
Mus musculus [5] = test: Neurotoxicity against Swiss albino Mus musculus (mouse) at 0.37 mmol/kg, ip measured after 15 to 25 min by chimney test; assay type: toxicity, organism-based; details: in vivo
[6] = Toxicity against i.p. dosed Swiss albino Mus musculus (mouse) by Sperman-Karber method; assay type: organism-based; details: in vivo, ip
Mus musculus [7] = test: Anticonvulsant activity in Swiss albino Mus musculus (mouse) assessed as protection against PTZ-induced seizure at 0.18 mmol/kg, ip administered 30 min prior to PTZ-challenge measured up to 30 min relative to control; assay type: functional
Mus musculus [8] = test: Anticonvulsant activity in ip dosed Swiss albino Mus musculus (mouse) assessed as protection against PTZ-induced seizure administered 30 min prior to PTZ-challenge measured up to 30 min; assay type: functional
[9] = Therapeutic index, ratio of LD50 to ED50 in Swiss albino Mus musculus (mouse); assay type: organism-based; details: in vivo, read-out: Ratio LD50/ED50
Mus musculus [10] = test: Anticonvulsant activity in Swiss albino Mus musculus (mouse) assessed as protection against bicuculline-induced seizure at 0.18 mmol/kg, i.p. administered 30 min prior to bicuculline-challenge measured up to 30 min relative to control; assay type: functional
Mus musculus [11] = organism: Mus musculus; test: Protective index, ratio of TD50 for to ED50 in Swiss albino Mus musculus (mouse)
Mus musculus [12] = test: Anticonvulsant activity in Swiss albino Mus musculus (mouse) assessed as protection against maximal electric shock-induced seizure at 0.18 mmol/kg, i.p. administered 30 min prior to maximal electric shock-challenge measured up to 30 min relative to control; assay type: functional
Mus musculus [13] = test: Anticonvulsant activity in Swiss albino Mus musculus (mouse) assessed as protection against PTZ-induced seizure at 0.75 mmol/kg, ip administered 30 min prior to PTZ-challenge measured up to 30 min relative to control; assay type: functional
Mus musculus [14] = test: Anticonvulsant activity in Swiss albino Mus musculus (mouse) assessed as protection against picrotoxin-induced seizure at 0.37 mmol/kg, i.p. administered 30 min prior to picrotoxin-challenge measured up to 30 min relative to control; assay type: functional
Mus musculus [15] = test: Anticonvulsant activity in Swiss albino Mus musculus (mouse) assessed as protection against maximal electric shock-induced seizure at 0.75 mmol/kg, i.p. administered 30 min prior to maximal electric shock-challenge measured up to 30 min relative to control; assay type: functional
Mus musculus [16] = test: Anticonvulsant activity in Swiss albino Mus musculus (mouse) assessed as protection against PTZ-induced seizure at 0.37 mmol/kg, ip administered 30 min prior to PTZ-challenge measured up to 30 min relative to control; assay type: functional
Mus musculus [17] = test: Neurotoxicity against Swiss albino Mus musculus (mouse) at 0.18 mmol/kg, ip measured after 15 to 25 min by chimney test; assay type: toxicity, organism-based; details: in vivo
Mus musculus [18] = test: Anticonvulsant activity in Swiss albino Mus musculus (mouse) assessed as protection against bicuculline-induced seizure at 0.37 mmol/kg, i.p. administered 30 min prior to bicuculline-challenge measured up to 30 min relative to control; assay type: functional
[19] = Neurotoxicity against ip dosed Swiss albino Mus musculus (mouse) measured after 15 to 25 min by chimney test; assay type: toxicity, organism-based; details: in vivo
Mus musculus [20] = test: Anticonvulsant activity in Swiss albino Mus musculus (mouse) assessed as protection against maximal electric shock-induced seizure at 0.37 mmol/kg, i.p. administered 30 min prior to maximal electric shock-challenge measured up to 30 min relative to control; assay type: functional
Mus musculus [21] = test: Neurotoxicity against Swiss albino Mus musculus (mouse) at 0.75 mmol/kg, ip measured after 15 to 25 min by chimney test; assay type: toxicity, organism-based; details: in vivo
Mus musculus [22] = test: Anticonvulsant activity in Swiss albino Mus musculus (mouse) assessed as protection against bicuculline-induced seizure at 0.75 mmol/kg, i.p. administered 30 min prior to bicuculline-challenge measured up to 30 min relative to control; assay type: functional
Mus musculus [23] = test: Neurotoxicity against Swiss albino Mus musculus (mouse) at 1.5 mmol/kg, ip measured after 15 to 25 min by chimney test; assay type: toxicity, organism-based; details: in vivo
Mus musculus [24] = organism: Mus musculus; test: Ratio of sodium valporate ED50 to compound ED50 in Swiss albino Mus musculus (mouse) PTZ-seizure model; assay type: functional
Mus musculus [25] = test: Anticonvulsant activity in Swiss albino Mus musculus (mouse) assessed as protection against picrotoxin-induced seizure at 0.75 mmol/kg, i.p. administered 30 min prior to picrotoxin-challenge measured up to 30 min relative to control; assay type: functional
Mus musculus [26] = test: Anticonvulsant activity in Swiss albino Mus musculus (mouse) assessed as protection against picrotoxin-induced seizure at 0.18 mmol/kg, i.p. administered 30 min prior to picrotoxin-challenge measured up to 30 min relative to control; assay type: functional
[27] = Toxicity against Swiss albino Mus musculus (mouse) assessed as mortality at 1.5 mmol/kg, ip; assay type: organism-based; details: in vivo, read-out: Activity

`O=C(Nn1c(-c2cccs2)nc2ccc(I)cc2c1=O)c1ccccc1` gave an Activity (Mus musculus [1]) of 100%, an Activity (Mus musculus [2]) of 80% and an Activity (Mus musculus [3]) of 100%. For the same molecule, the Activity (Mus musculus [4]) was 0%.
In the case of `CCOC(=O)CSc1nc2ccc(C)cc2c(=O)n1-c1ccccc1`, the Activity (Mus musculus [1]) is reported as “inactive”.
With `Cc1ccc2nc(SCC(=O)NN3C(=O)c4c(Cl)c(Cl)c(Cl)c(Cl)c4C3=O)n(-c3ccccc3)c(=O)c2c1` the Activity (Mus musculus [1]) was 70%, the Activity (Mus musculus [5]) was 0% and the LD50 [6] was 1290 mg/kg. The Activity (Mus musculus [7]) was 0%, the ED50 (Mus musculus [8]) was 457 mg/kg and the selectivity ratio [9] was 2.82. The Activity (Mus musculus [10]) was 0%, the “Ratio TD50/ED50” value (Mus musculus [11]) was 1.22 and the Activity (Mus musculus [12]) was 0%. The Activity (Mus musculus [13]) was 50%, the Activity (Mus musculus [14]) was 20% and the Activity (Mus musculus [15]) was 10%. For the same molecule, the Activity (Mus musculus [3]) was 100%, the Activity (Mus musculus [16]) was 30% and the Activity (Mus musculus [17]) was 0%. It also gave an Activity (Mus musculus [18]) of 10%, a TD50 [19] of 562 mg/kg and an Activity (Mus musculus [4]) of 70%. It also gave an Activity (Mus musculus [20]) of 0%, an Activity (Mus musculus [21]) of 30% and an Activity (Mus musculus [22]) of 70%. The Activity (Mus musculus [23]) was 100%.
For `Cc1ccc2nc(SCC(=O)NN3C(=O)c4ccccc4C3=O)n(-c3ccccc3)c(=O)c2c1`, the Activity (Mus musculus [1]) was “inactive”.
For `Cc1ccc2nc(S)n(Cc3ccccc3)c(=O)c2c1`, the Activity (Mus musculus [1]) was “inactive”.
In the case of `CCOC(=O)CSc1nc2ccc(C)cc2c(=O)n1Cc1ccccc1`, the Activity (Mus musculus [1]) is reported as “inactive”.
`Cc1ccc2nc(S)n(-c3ccccc3)c(=O)c2c1` gave an Activity (Mus musculus [1]) of 70%, an Activity (Mus musculus [2]) of 80% and an Activity (Mus musculus [3]) of 100%. For the same molecule, the Activity (Mus musculus [4]) was 0%.
For `O=C1c2ccccc2C(=O)N1n1c(-c2cccs2)nc2ccc(I)cc2c1=O`, the Activity (Mus musculus [1]) was 100%, the Activity (Mus musculus [5]) was 30% and the “Ratio ED50” value (Mus musculus [24]) was 2. The LD50 [6] was 1380 mg/kg, the Activity (Mus musculus [7]) was 0% and the ED50 (Mus musculus [8]) was 251 mg/kg. For the same molecule, the selectivity ratio [9] was 5.5, the Activity (Mus musculus [10]) was 0% and the “Ratio TD50/ED50” value (Mus musculus [11]) was 1.78. For the same molecule, the Activity (Mus musculus [12]) was 0%, the Activity (Mus musculus [13]) was 70% and the Activity (Mus musculus [14]) was 50%. It also gave an Activity (Mus musculus [15]) of 0%, an Activity (Mus musculus [25]) of 50% and an Activity (Mus musculus [26]) of 20%. The Activity (Mus musculus [3]) was 100%, the Activity (Mus musculus [16]) was 30% and the Activity (Mus musculus [17]) was 0%. For the same molecule, the Activity (Mus musculus [18]) was 10%, the TD50 [19] was 447 mg/kg and the Activity (Mus musculus [4]) was 30%. It also gave an Activity (Mus musculus [20]) of 0%, an Activity (Mus musculus [21]) of 30% and an Activity (Mus musculus [22]) of 40%. It also gave an Activity (Mus musculus [23]) of 80%.
With `O=c1oc(-c2cccs2)nc2ccc(I)cc12` the Activity (Mus musculus [1]) was “inactive”.
In the case of `O=c1c2cc([N+](=O)[O-])ccc2nc(S)n1-c1ccccc1`, the Activity (Mus musculus [1]) is reported as 30%.
With `Cc1ccc2nc(SCC(=O)NN3C(=O)c4ccccc4C3=O)n(Cc3ccccc3)c(=O)c2c1` the Activity (Mus musculus [1]) was “inactive”.
For `O=c1[nH]c(-c2cccs2)nc2ccc(I)cc12`, the Activity (Mus musculus [1]) was “inactive”.
With `Cc1ccc2nc(SCC(=O)NN)n(Cc3ccccc3)c(=O)c2c1` the Activity (Mus musculus [1]) was “inactive” and the mortality [27] was 100%.
With `Cc1ccc2nc(SCC(=O)NN3C(=O)c4cccc5cccc(c45)C3=O)n(-c3ccccc3)c(=O)c2c1` the Activity (Mus musculus [1]) was “inactive”.
For `O=C(Nc1ccc(I)cc1C(=O)O)c1cccs1`, the Activity (Mus musculus [1]) was “inactive”.
In the case of `Cc1ccc2nc(SCC(=O)NN3C(=O)c4c(Cl)c(Cl)c(Cl)c(Cl)c4C3=O)n(Cc3ccccc3)c(=O)c2c1`, the Activity (Mus musculus [1]) is reported as “inactive”.
For `Cc1ccc2nc(SCC(=O)NN3C(=O)c4c(Br)c(Br)c(Br)c(Br)c4C3=O)n(Cc3ccccc3)c(=O)c2c1`, the Activity (Mus musculus [1]) was “inactive”.
For `NNc1nc2ccc([N+](=O)[O-])cc2c(=O)n1Cc1ccccc1`, the Activity (Mus musculus [1]) was “inactive”.
In the case of `O=C(COc1nc(-c2cccs2)nc2ccc(I)cc12)NN1C(=O)c2cccc3cccc(c23)C1=O`, the Activity (Mus musculus [1]) is reported as “inactive”.
